Read-outs that look alike come from different tables or passages of the source. Where a SMILES comes first, the peptide text is derived from it. The star is where a group is joined. Cbz = O=C(OCc1ccccc1)*; CH2F = FC*
How the values were obtained:
[1] = Octanol–water partition coefficient, shake-flask method; assay type: physicochemical; conditions: n-octanol/water, UV absorbance 260 nm
Method: Lipophilicities of all complexes have been measured by the classical shake-flask method, using UV absorption. The Log p values range from -0.063 to 0.861 in increasing order –0.063 (4a), 0.035 (4d), 0.519 (4f), 0.581 (4c), 0.842 (4b), 0.847 (4e) and 0.861 (4g).
The octanol–water partition coefficients (P) of 4a to 4g were determined using a shake-flask method. Water (100 mL, distilled after milli-Q purification) and n-octanol (100 mL, Sigma-Aldrich, St. Louis, MO, USA, ACS spectrophotometric grade, ≥99%) were shaken together for 24 h to allow saturation of both phases. Stock solutions of the […] compounds (50 μM) were prepared in the aqueous phase and aliquots (1 mL) of each of these stock solutions were then added to an equal volume of the n-octanol phase. The resultant biphasic solutions were mixed for 1 h and then centrifuged (3000× g, 5 min) (Eppendorf Centrifuges 5415R and 5804R) to separate the phases. The concentrations of the complexes in the organic and aqueous phases were then determined using UV absorbance spectroscopy (260 nm). Log P was defined as the logarithm of the ratio of the concentrations of the studied complex in the organic and aqueous phases (Log P = Log {[Ir(org)]/[Ir(aq)]}; values reported are the means of at least two separate determinations).

NIH3T3 = assay: MTT cytotoxicity, 48 h; assay type: cell-based, murine
Method: (§1) The in vitro cytotoxicity of iridium(III) complexes 4a–4g was first evaluated against cancer cell lines PC-3 (human prostate) and T24 (human bladder) and the non-cancerous NIH-3T3 cell line (murine fibroblasts) using colorimetric MTT tests after 48 h of treatment. The dimeric iridium precursor [IrCl(ppy)2]2 was used as reference and the results are summarized in Table S1 (Supplementary Materials) in the supporting information file. […] The complexes were also evaluated for their cytotoxicity towards healthy NIH-3T3 cells, giving access to the selectivity index (SI). […] No linear correlation between lipophilicity and anti-cancer activity was found for the iridium(III) complexes 4a–4g. For the following biological studies, we focused on the C1 series.
(§2) Table S1. Cytotoxic activity of iridium(III) NHC complexes 4a−4g expressed as GI50 (μM) values towards selected cancer and normal cell lines as determined by MTT assay (48 h).a Complex PC-3 T24 NIH3T3 SI (PC-3) SI (T24) […]
(§3) a GI50 values correspond to the concentration of complexes causing 50 % inhibition of cell growth.
(§4) Data were obtained from three independent experiments.
(§5) The cytotoxic effects of the NHC precursors, the imidazolium salts, which represents the potential hydrolysis and/or degradation products of the complexes, have been published before [SI-1, SI-2]. […]

T24 = assay: MTT cytotoxicity, 48 h; assay type: cell-based, human; conditions: for GI50: MTT; for SI (T24): NIH3T3 vs T24
Method: as §1, §2, §3, §4, §5

PC-3 = assay: MTT cytotoxicity, 48 h; assay type: cell-based, human; conditions: for GI50: MTT; for SI (PC-3): NIH3T3 vs PC-3
Method: as §1, §2, §3, §4, §5

[2] = Photophysical measurements (emission, quantum yield, lifetime) in CH2Cl2; assay type: physicochemical; conditions: CH2Cl2, 298 K, references POPOP and quinine sulfate
Source text: All complexes have been photophysically investigated at standard pressure in CH2Cl2 at 298 K. The absorption spectra of complexes 4a to 4g in CH2Cl2 at 298 K are shown in Figure 7. The strong absorption bands below 300 nm correspond to spin-allowed ^1π→π* electronic ligand-centered (LC) transitions. The structureless bands at 300–360 nm are attributed to ppy-to-ppy ^1π→π* […] charge transfer (LLCT) and Ir-to-ppy metal-to-ligand charge transfer (MLCT) transitions. The lowest-lying bands in the visible region can be assigned to both singlet and triplet MLCT transitions. No significant difference in the absorption spectra of complexes 4a to 4g can be found in the CH2Cl2 solution.
The luminescence spectra of complexes 4a to 4f in CH2Cl2 at 298 K are shown in Figure 8 and their photophysical data are summarized in Table 1.
The relative emission quantum yields (ΦPL) of these complexes in CH2Cl2 at room temperature were measured by using POPOP and quinine sulfate in 1 N H2SO4 as standard references (ΦPL = 97% and ΦPL = 54%, respectively). […] In addition, the excited-state lifetimes of complexes 4a to 4d are in the range of 166.4–190.7 ns, indicating the phosphorescence nature of the emissions.
UV/Vis absorption spectra were recorded at RT on solutions contained in quartz cuvettes (optical pathlength 1 cm, Hellma® (HELLMA, Müllheim, Germany)) with a PerkinElmer® (PerkinElmer, Waltham, MA, USA) UV/VIS/NIR spectrophotometer Lambda 950 and a PerkinElmer® detector UV/VIS/NIR Accessory 2D Detector Module.
Fluorescence and phosphorescence emission spectra were obtained with a HORIBA JOBIN YVON (Bensheim, Germany) fluromax-4 and spectrofluorometer.
Luminescence quantum yields were measured according to the method of Demas and Crosby, on solution samples at RT. The quantum yield is defined as: ΦS=ΦR*As/Ar* ηs/ηr^2^2 where ΦS is the quantum yield of the sample, ΦR is the known quantum yield of the reference standard at the area subtended by the emission band (on a wavelength scale) and η is the refractive index of the solvent used for the preparation of the solution. As (related to the sample) and Ar (related to the reference) must be excitation wavelength. Different standards were selected depending on the spectral region of the interest: POPOP in hexane (Φ = 97%) and QUININNE in water (Φ = 54%).
Fluorescence lifetime measurements were performed by an Edinburgh FLS920 spectrofluorometer equipped with a TCC900 card for data acquisition in time-correlated single-photon counting experiments (0.5 ns time resolution) with a D2 lamp and an LDH-P-C-405 pulsed diode laser. The estimated experimental error was 2 nm on the band maximum (5% on the lifetime, 10% on the fluorescence quantum yield).

[3] = system: PC-3 prostate cancer cells; assay: MTT cell viability, 72 h, dark or 458 nm irradiation; assay type: cell-based, human; conditions: for GI50: 72 h, MTT
Method: (§6) For all biology experiments, the compounds were solubilized in DMSO to reach a final fixed concentration equal to 0.1% v/v to avoid cytotoxicity caused by DMSO [89]. The results are normalized to controls (0.1% v/v DMSO). Depending on the cell type, approximatively 1000 to 10,000 cells/cm^2 were seeded in 48-well plates for MTT, ATP and GSH assays and 60 mm Petri dishes for Western blots. Cells were allowed to attach overnight and then incubated for 4 h with the different complexes (in the dark), then irradiated for 10 min, followed by an incubation in the dark up to 72 h.
(§7) Irradiation was conducted using an in-house device: a series of blue light LEDs selected according to the absorption spectra of the compounds at a 458 nm wavelength with an emitted power of 9.6 watts. The absorbed energy, or irradiance, was measured at 458 nm with a Thorlabs Optical Power Meter PM100A at 5 and 10 cm distance between the cell layer and the light source and expressed as mW/cm^2.
(§8) A tetrazolium-based MTT reagent (3-(4,5-dimethylthiazol-2-yl)-2,5-diphenyltetrazolium bromide) was used to determine cell viability, as previously described. After 72 h of treatment at 37 °C and 5% CO2, cells were incubated with 25 μL MTT solution (5 mg/mL; Sigma-Aldrich) for 4 h. After solubilization with 500 μL of lysis buffer (DMSO), formazan was quantified by spectrophotometry with a microplate reader at 570 nm absorbance (ClarioSTAR, BMG LabTech, Champigny-sur-Marne, France). GI50 values corresponding to the concentration that caused 50% inhibition of cell proliferation were calculated from dose–response curves obtained by nonlinear regression analysis. All results were calculated from data obtained in at least three independent experiments.

T24 bladder cancer cells = assay: as above; assay type: cell-based, human; conditions: for GI50: 72 h, MTT
Method: as §6, §7, §8

NIH-3T3 fibroblasts = assay: as above; assay type: cell-based, murine; conditions: for GI50: 72 h, MTT
Method: as §6, §7, §8

MCF7/FasR cells = assay: Cell death with or without pan-caspase inhibitor z-VAD-fmk, MTT; assay type: cell-based, human; conditions: 10 µM z-VAD-fmk, MCF7/FasR and MCF7/FasR/Bcl-xL, 72 h
Source text: To determine the mechanism of cell death, we used MCF7 cells transfected to express the human Fas receptor (FasR) or doubly transfected to express the human Fas receptor and human Bcl-xL [75]. Since MCF7 cells express the TNF receptor endogenously, this allowed the study of both Fas- and TNFα-mediated apoptosis in the same cell model to assess whether cell death was dependent on the Bcl-2 family of mitochondrial proteins such as Bcl-xL. […] This is consistent with findings that death receptors such as FasR and TNFR can mediate apoptosis through both the extrinsic pathway (mitochondria-independent by directly activating executioner caspases via upstream caspase-8) and the intrinsic (mitochondrial) pathway controlled by the Bcl-2 family of proteins.
We next evaluated the effect of the pan-caspase inhibitor z-VAD-fmk on caspase signaling. As expected, the treatment with z-VAD-fmk rendered MCF7/FasR cells resistant to TNFα-induced PARP and caspase-7 processing (Figure 14A) and to the loss of cell viability (Figure 14B).
as §8, with “GI50 values corresponding to the concentration that caused 50% inhibition of cell proliferation were calculated from dose–response curves obtained by nonlinear regression analysis.” left out
Figure 11 Bcl-xL and z-VAD-fmk inhibited by Fas- or TNFα-induced cell death in MCF7 cells. […] Cell death was assessed by MTT assay. […]
Figure 14 Evaluation of apoptotic biomarkers. […] (B) Cell viability was evaluated in duplicate samples. Data are expressed as percent (%) of untreated cells and are the means of 3 independent experiments (***, p < 0.0001, NS, not significant).

[4] = GI50 non-irradiated / GI50 irradiated

SMILES | Log P [1] | GI50 (NIH3T3) [µM] | GI50 (T24) [µM] | SI (T24) (T24) | GI50 (PC-3) [µM] | SI (PC-3) (PC-3) | ΦPL emission quantum yield [2] [%] | other results
F[P-](F)(F)(F)(F)F.c1ccc(C[n+]2ccn3[c]2[Ir-3]24([c]5ccccc5-c5cccc[n+]52)([c]2ccccc2-c2cccc[n+]24)[c]2n(cc[n+]2Cc2ccccc2)CC3)cc1 [Complex 4e] | 0.847 | 2.5 | 0.29 | 8.6 | 0.25 | 10.0 | 0.2 | 
CC(C)C[n+]1ccn2[c]1[Ir-3]13([c]4ccccc4-c4cccc[n+]41)([c]1ccccc1-c1cccc[n+]13)[c]1n(cc[n+]1CC(C)C)CC2.F[P-](F)(F)(F)(F)F [Complex 4f] | 0.519 | 4.1 | 0.91 | 4.5 | 0.91 | 4.5 | 0.2 | 
c1cc[c]2c(c1)-c1cccc[n+]1[Ir-3]213([Cl+][Ir-3]24([Cl+]1)([c]1ccccc1-c1cccc[n+]12)[c]1ccccc1-c1cccc[n+]14)[c]1ccccc1-c1cccc[n+]13 [[IrCl(ppy)2]2, reference compound] |  | > 20 | 14.8 | > 1.4 | > 20 | > 1 |  | GI50 ([3]; 458 nm irradiation 10 min, read-out: GI50 PC-3 Blue): 14 µM; PI PC-3 [3, 4]: 2.1; SI vs NIH, PC-3 Blue ([3]; blue light, GI50 NIH-3T3 / GI50 PC-3): 1.0; GI50 ([3]; dark, read-out: GI50 PC-3 Dark): 29 µM; SI vs NIH, PC-3 Dark ([3]; dark, GI50 NIH-3T3 / GI50 PC-3): 1.4; GI50 (T24 bladder cancer cells; 458 nm irradiation 10 min, read-out: GI50 T24 Blue): 22 µM; PI T24 (T24 bladder cancer cells; [4]): 1.2; SI vs NIH, T24 Blue (T24 bladder cancer cells; blue light, GI50 NIH-3T3 / GI50 T24): 0.7; GI50 (T24 bladder cancer cells; dark, read-out: GI50 T24 Dark): 26 µM; SI vs NIH, T24 Dark (T24 bladder cancer cells; dark, GI50 NIH-3T3 / GI50 T24): 1.5; GI50 (NIH-3T3 fibroblasts; 458 nm irradiation 10 min, read-out: GI50 NIH-3T3 Blue): 14 µM; PI NIH-3T3 (NIH-3T3 fibroblasts; [4]): 2.9; GI50 (NIH-3T3 fibroblasts; dark, read-out: GI50 NIH-3T3 Dark): 40 µM
COC(=O)C[C@H](NC(=O)[C@H](C)NC(=O)[C@@H](NC(=O)OCc1ccccc1)C(C)C)C(=O)CF [z-VAD-fmk, reference compound] (Cbz-Val-Ala-Asp(OMe)-CH2F) |  |  |  |  |  |  |  | effect on cell death induced by Fas antibody and TNFα (MCF7/FasR cells): completely abolished cell death

Reference: PMC9861386, “N-Heterocyclic Carbene-Iridium Complexes as Photosensitizers for In Vitro Photodynamic Therapy to Trigger Non-Apoptotic Cell Death in Cancer Cells” (Molecules, 2023)
